The results in this text go back to patent US8263642B2, “Antimicrobial compounds and methods of use thereof” (Vanderbilt University, priority 2008, dated 2012).

Test [1] has as its system HssRS-dependent hrtAB expression. Nature of the test: Luminescence-based assay to monitor HssRS-dependent hrtAB expression (phrtABlux reporter), Newman. Particulars: Newman; for Luminescence: raw luminescence value obtained in a luminometer; for activation at 0.0825 µM: Staphylococcus aureus, NEWMAN, read-out: % Lumi, luminescence induced by the compound compared to the heme control (82.5 nM) in the same plate. Format: cell-based, Staphylococcus aureus. Put shortly:
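S. aureus Newman wild type or ΔhssR carrying a hrtAB promoter–luxCDABE reporter (phrtABlux), grown in TSB with 10 μg/ml chloramphenicol at 37 °C. Light output read against 82.5 nM heme as the in-plate positive control. Activity given as % of heme-induced luminescence.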

Test [2] has as its system hrtAB-driven expression of the xylE reporter gene. Nature of the test: XylE reporter assay (hrtAB promoter-xylE), Newman. It is filed as cell-based, Staphylococcus aureus. Particulars: for XylE (0.05): level of XylE induction at 0.05 uM of the compound; for XylE (0.5): level of XylE induction at 0.5 uM of the compound; for XylE (5.0): level of XylE induction at 5.0 uM of the compound; for XylE (50.0): level of XylE induction at 50.0 uM of the compound. A digest of the protocol: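 S. aureus carrying hrtAB promoter-xylE fusion in pOS1 grown O/N at 37° C in TSB with chloramphenicol, lysed with lysostaphin. Lysate XylE activity read as 2-hydroxymuconic semialdehyde formation from 0.2 mM pyrocatechol (A375, every minute for 30 minutes), normalised to BCA protein; unit = 1 nmol/min/mg at 30° C.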

With `Oc1c(-c2cc(-c3ccco3)[nH]n2)ccc2ccccc12` [drawing 25], in test [1], the Luminescence is on record as 2622. In test [2], the “XylE (0.05)” value was determined as 0.07, the “XylE (0.5)” value is 0.06, the “XylE (5.0)” value is reported as 0.2 and the “XylE (50.0)” value was 1000.

`CC(NC(=O)C1(c2ccccc2)CCCC1)C1COc2ccccc2O1` (stereo not drawn) [drawing 45]: the Luminescence in test [1] is 757. Also, in test [2], the “XylE (0.05)” value was 0.04, the “XylE (0.5)” value turned out to be 0.1, the “XylE (5.0)” value is recorded as 0.7 and the “XylE (50.0)” value was determined as 0.05.

On to `COc1ccc(C(=O)Nc2sc(-c3ccccc3)cc2C(N)=O)cc1`, for which, in test [1], the activation at 0.0825 µM amounted to 244% and the Luminescence is recorded as 1781. In test [2], the “XylE (0.05)” value was found to be 0.07, the “XylE (0.5)” value was 0.09, the “XylE (5.0)” value stood at 4 and the “XylE (50.0)” value is reported as 6.

Regarding `COc1ccccc1NC1=C/C(=N\S(=O)(=O)c2ccc(Br)cc2)c2ccccc2C1=O` [drawing 81], in test [1], the activation at 0.0825 µM was 510% and the Luminescence was determined as 2270. Moreover, in test [2], the “XylE (0.05)” value is recorded as 1, the “XylE (0.5)” value was determined as 1, the “XylE (5.0)” value was 1 and the “XylE (50.0)” value was 1.

Turning to `Oc1c(-c2cc(-c3ccco3)[nH]n2)ccc2ccccc12` [drawing 65], in test [1], the activation at 0.0825 µM turned out to be 630% and the Luminescence turned out to be 2622. Moreover, in test [2], the “XylE (0.05)” value turned out to be 0.4, the “XylE (0.5)” value was 0.07, the “XylE (5.0)” value is 12 and the “XylE (50.0)” value is 5.

`Cc1ccc(NS(=O)(=O)c2ccc3c(c2)Cc2cc(S(=O)(=O)Nc4ccc(C)cc4)ccc2-3)cc1` [drawing 74] came in with a Luminescence in test [1] of 7328. Moreover, in test [2], the “XylE (0.05)” value stood at 1, the “XylE (0.5)” value is given as 1, the “XylE (5.0)” value was 15 and the “XylE (50.0)” value turned out to be 14.

`Cc1ccc(O)c(NC(=O)c2nn3c(c2Br)NC(c2ccco2)CC3C(F)(F)F)c1` (stereo not drawn) [drawing 29]: in test [1], the activation at 0.0825 µM is 307% and the Luminescence is on record as 1949. Also, in test [2], the “XylE (0.05)” value stood at 0.05, the “XylE (0.5)” value is given as 0.06, the “XylE (5.0)” value is reported as 5 and the “XylE (50.0)” value worked out at 3.

In the case of `Fc1ccc(CNC(=S)Nc2ccc(Oc3ccccc3)cc2)cc1`, in test [1], the activation at 0.0825 µM was 362% and the Luminescence stood at 1570. Also, in test [2], the “XylE (0.05)” value is listed as 0.06, the “XylE (0.5)” value is on record as 0.05, the “XylE (5.0)” value was found to be 0.2 and the “XylE (50.0)” value turned out to be 1.

For the molecule `COc1ccc(-c2cc(-c3ccc(OC)cc3O)n[nH]2)cc1`, in test [1], the activation at 0.0825 µM amounted to 238% and the Luminescence is 1482. Moreover, in test [2], the “XylE (0.05)” value came out at 0.06, the “XylE (0.5)” value is 0.02, the “XylE (5.0)” value stood at 0.7 and the “XylE (50.0)” value is 4.

Consider `CC(C)(C)c1ccc(O)c(NC(=S)NC(=O)c2cc3ccccc3o2)c1`, for which, in test [1], the activation at 0.0825 µM is 101% and the Luminescence was found to be 419. Besides, in test [2], the “XylE (0.05)” value was determined as 0.09, the “XylE (0.5)” value is on record as 0.8, the “XylE (5.0)” value worked out at 0.9 and the “XylE (50.0)” value was determined as 1.

`CCCN1C(=O)/C(=C2/C(=O)N(CC(=O)Nc3ccc(Cl)cc3)c3ccccc32)SC1=S` [drawing 67] yielded a Luminescence in test [1] of 98. For the same molecule, in test [2], the “XylE (0.05)” value amounted to 0.02, the “XylE (0.5)” value turned out to be 0.04, the “XylE (5.0)” value worked out at 0.05 and the “XylE (50.0)” value was 1.

The molecule `COc1ccc(Br)cc1C(=O)NC(=S)Nc1cc(C)c(C)cc1O` [drawing 63] registered a Luminescence in test [1] of 946. In test [2], the “XylE (0.05)” value is on record as 0.08, the “XylE (0.5)” value was found to be 0.8, the “XylE (5.0)” value worked out at 0.9 and the “XylE (50.0)” value is 2.

As to `CC(NC(=O)C1(c2ccccc2)CCCC1)C1COc2ccccc2O1` (stereo not drawn) [drawing 26], in test [1], the activation at 0.0825 µM is 266% and the Luminescence is 757. In test [2], the “XylE (0.05)” value is 0.06, the “XylE (0.5)” value is recorded as 0.05, the “XylE (5.0)” value turned out to be 0.7 and the “XylE (50.0)” value was found to be 200.

Turning to `O=C(N/N=C/c1ccc(-c2ccc(Br)cc2)o1)C1COc2ccccc2O1` (stereo not drawn) [drawing 48], in test [1], the activation at 0.0825 µM worked out at 133% and the Luminescence stood at 485. In addition, in test [2], the “XylE (0.05)” value is 0.02, the “XylE (0.5)” value is on record as 0.08, the “XylE (5.0)” value was found to be 0.7 and the “XylE (50.0)” value came out at 0.2.

Regarding `O=C(N/N=C/c1ccc(-c2cccc(C(F)(F)F)c2)o1)C1COc2ccccc2O1` (stereo not drawn) [drawing 49], in test [1], the activation at 0.0825 µM is 152% and the Luminescence amounted to 558. Also, in test [2], the “XylE (0.05)” value stood at 0.07, the “XylE (0.5)” value turned out to be 0, the “XylE (5.0)” value was found to be 0.6 and the “XylE (50.0)” value is 0.09.

`COc1ccc(-c2cc(-c3ccc(C)cc3)[nH]n2)c(O)c1`: in test [1], the activation at 0.0825 µM was determined as 180% and the Luminescence is listed as 1122. In addition, in test [2], the “XylE (0.05)” value came to 0.08, the “XylE (0.5)” value was determined as 0.02, the “XylE (5.0)” value worked out at 0.07 and the “XylE (50.0)” value came out at 0.09.

For the molecule `Cc1cccc(C(=O)Nc2ccc(-c3nc4ccccc4o3)cc2)c1` [drawing 43], the Luminescence in test [1] is 837. In test [2], the “XylE (0.05)” value was 0.09, the “XylE (0.5)” value was determined as 0.7, the “XylE (5.0)” value was found to be 1 and the “XylE (50.0)” value was found to be 0.09.
